Experimental data: paper PMC11035632, “Discovery of gefitinib-1,2,3-triazole derivatives against lung cancer via inducing apoptosis and inhibiting the colony formation” (Scientific Reports, 2024)

How the values were obtained:
Format in all cases: cell-based
NCI-H1437 cells = assay: CCK-8 assay for cell proliferation and cytotoxicity, NCI-H1437; conditions: Homo sapiens, CCK-8, 48 h, read-out: IC50 1437
Procedure: (§1) Three types of lung cells were seeded into 96-well plate at a density of 5 × 10^3 cells per well at logarithmic growth phase and cultured in 37 °C. […] After that, cell viability was determined according to the instruction of the CCK-8 assay. Next, 10 μL of CCK-8 solution was added to each well of the plate and incubate the plate for 1–4 h in the incubator. The absorbance was measured at 450 nm using a microplate reader (Bio-Tek). The percentage of viable cells was measured using the following formula where three independent experiments were performed: [(A450 sample − A450blank)/(A450 control − A450blank)] × 100%.

A549 cells = assay: CCK-8 assay for cell proliferation and cytotoxicity, A549; conditions: Homo sapiens, CCK-8, 48 h
Procedure: A549 cells were cultured in a humidified incubator at 37 °C with 5% CO2 in Ham’s F-12 K (PM150910, Procell) supplemented with 10% FBS and 1% Penicillin Streptomycin.
as §1

NCI-H1299 cells = assay: CCK-8 assay for cell proliferation and cytotoxicity, NCI-H1299; conditions: Homo sapiens, CCK-8, 48 h
Procedure: as §1

COc1cc2ncnc(Nc3cccc(-c4cn(Cc5ccccc5C)nn4)c3)c2cc1OCCCN1CCOCC1 [Compound 7l]
IC50 (NCI-H1437 cells): 0.84 ± 0.1 µM
IC50 (A549 cells): 6.59 ± 0.2 µM
IC50 (NCI-H1299 cells): 4.92 ± 0.49 µM

COc1cccc(-n2cc(-c3cccc(Nc4ncnc5cc(OC)c(OCCCN6CCOCC6)cc45)c3)nn2)c1 [Compound 7r]
IC50 (NCI-H1437 cells): 6.21 ± 0.23 µM
IC50 (A549 cells): 12.9 ± 0.25 µM
IC50 (NCI-H1299 cells): 9.35 ± 0.31 µM

COc1cc2ncnc(Nc3cccc(-c4cn(Cc5cccc(I)c5)nn4)c3)c2cc1OCCCN1CCOCC1 [Compound 7p]
IC50 (NCI-H1437 cells): 4.93 ± 0.14 µM
IC50 (A549 cells): 8.5 ± 0.34 µM
IC50 (NCI-H1299 cells): 5.04 ± 0.33 µM

COc1cc2ncnc(Nc3cccc(-c4cn(Cc5ccc(C(F)(F)F)cc5)nn4)c3)c2cc1OCCCN1CCOCC1 [Compound 7h]
IC50 (NCI-H1437 cells): 5.21 ± 0.3 µM
IC50 (A549 cells): 7.13 ± 1.21 µM
IC50 (NCI-H1299 cells): 4.89 ± 0.16 µM

COc1cc2ncnc(Nc3cccc(-c4cn(-c5ccc([N+](=O)[O-])cc5OC)nn4)c3)c2cc1OCCCN1CCOCC1 [Compound 7t]
IC50 (NCI-H1437 cells): 14.93 ± 0.14 µM
IC50 (A549 cells): 13.5 ± 0.33 µM
IC50 (NCI-H1299 cells): 13 ± 0.23 µM

COc1cc2ncnc(Nc3cccc(-c4cn(Cc5ccc(I)cc5)nn4)c3)c2cc1OCCCN1CCOCC1 [Compound 7i]
IC50 (NCI-H1437 cells): 4.69 ± 0.23 µM
IC50 (A549 cells): 5.76 ± 0.62 µM
IC50 (NCI-H1299 cells): 5.6 ± 0.09 µM

COc1cc(Cn2cc(-c3cccc(Nc4ncnc5cc(OC)c(OCCCN6CCOCC6)cc45)c3)nn2)cc(OC)c1 [Compound 7o]
IC50 (NCI-H1437 cells): 5.21 ± 0.13 µM
IC50 (A549 cells): 12 ± 0.15 µM
IC50 (NCI-H1299 cells): 6.78 ± 0.41 µM

COc1cc2ncnc(Nc3cccc(-c4cn(Cc5cc(C)cc(C)c5)nn4)c3)c2cc1OCCCN1CCOCC1 [Compound 7m]
IC50 (NCI-H1437 cells): 3.72 ± 0.17 µM
IC50 (A549 cells): 6.54 ± 0.21 µM
IC50 (NCI-H1299 cells): 4.48 ± 0.41 µM

COc1cc2ncnc(Nc3cccc(-c4cn(Cc5ccc(Br)cc5F)nn4)c3)c2cc1OCCCN1CCOCC1 [Compound 7b]
IC50 (NCI-H1437 cells): 3.65 ± 0.04 µM
IC50 (A549 cells): 5.28 ± 0.2 µM
IC50 (NCI-H1299 cells): 4.6 ± 0.16 µM

COc1cc2ncnc(Nc3cccc(-c4cn(-c5ccccc5F)nn4)c3)c2cc1OCCCN1CCOCC1 [Compound 7q]
IC50 (NCI-H1437 cells): 7.21 ± 0.1 µM
IC50 (A549 cells): 9.03 ± 0.15 µM
IC50 (NCI-H1299 cells): 7.68 ± 0.11 µM
